Experimental data as given in patent publication US10532085B2, “Methods for increasing intracellular activity of Hsp70” (Orphazyme A/S, priority 2010, dated 2020).

How the values were obtained:
NPC−/− mice [1] = test: NPC1 in vivo pilot study: organ weights; details: 10 mg/kg IP three times per week; sacrificed at 7 or 9 weeks old
Experimental: (§1) Eight treated (rHSP70) NPC^−/− versus eight control (PBS only) NPC^−/− controls. Mice were treated IP three times per week with either 10 mg/kg of rHSP70 or vehicle alone (PBS) from 3 weeks of age. Three control and three treated mice were sacrificed at 7 or 9 weeks old (i.e. after 4 or 6 weeks of treatment, respectively). Organs were perfused (PBS), weighed and frozen for biochemical and immunohistochemical analysis.

NPC−/− mice [2] = test: NPC1 in vivo pilot study: rearing analysis
Experimental: as §1
Rearing analysis was performed only at 9 and 10 weeks of age. Briefly, animals are allowed to acclimatise in an open field box. After 5′, counts are made of the activity of the mice including the number of times the animal rears in the centre of the box without support, or at the edges of the box using the walls for support.

NPC−/− mice [3] = test: NPC1 in vivo pilot study: tremor analysis; details: automated tremor monitor; particularly pronounced in the lowest frequency range
Experimental: as §1
Behavioural experiments were performed from 3 weeks of age, as described previously. Briefly, tremor analysis was performed using an automated tremor monitor (San Diego instruments) Gait analysis was performed by painting front and hind paws with non-toxic paint and allowing the mice to walk over Whatman 3M paper. Paw placement was measured to determine how closely their hind paws superimposed their front paws, the length of the stride and the width of their gait.

ASM = target: T1, ASM (Mus musculus, UniProt Q04519); test: ASM activity in WT-MEFs; type: cell-based, murine; details: 300 nM (cytoprotective concentration)
T1 construct: endogenous in cells; host or cells: immortalized wild-type murine embryonic fibroblasts (WT-MEFs)
T1 sequence (Q04519 45-627): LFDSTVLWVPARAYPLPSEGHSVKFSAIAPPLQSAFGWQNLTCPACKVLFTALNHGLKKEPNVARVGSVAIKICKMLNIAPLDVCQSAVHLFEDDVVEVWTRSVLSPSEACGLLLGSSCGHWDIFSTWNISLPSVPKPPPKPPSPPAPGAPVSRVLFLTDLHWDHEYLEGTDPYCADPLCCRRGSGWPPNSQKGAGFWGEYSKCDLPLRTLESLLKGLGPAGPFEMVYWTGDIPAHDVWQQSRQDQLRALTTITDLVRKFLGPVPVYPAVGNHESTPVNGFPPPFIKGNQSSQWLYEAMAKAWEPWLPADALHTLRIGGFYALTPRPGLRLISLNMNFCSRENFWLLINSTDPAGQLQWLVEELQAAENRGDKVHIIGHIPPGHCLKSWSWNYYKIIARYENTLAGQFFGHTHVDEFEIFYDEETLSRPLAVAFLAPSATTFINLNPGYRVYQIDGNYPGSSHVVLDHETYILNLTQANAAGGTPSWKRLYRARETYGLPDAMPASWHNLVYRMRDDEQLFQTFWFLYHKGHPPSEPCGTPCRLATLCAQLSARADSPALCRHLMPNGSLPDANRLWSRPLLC
Description: BMP binds ASM with high affinity and stimulates its ability to hydrolyze sphingomyelin to ceramide and phosphorylcholine. […] In order to test whether ASM is responsible for the lysosome stabilizing effect we treated the cells with desipramine, a well characterized pharmacological ASM inhibitor. […] It should be noted that akin to rHsp70, also rASM localized to the lysosomes.
WT- and Hsp70-MEFs were generated, immortalized and maintained as described in the art. Human NPDA fibroblasts (83/24) originate from a skin biopsy of a patient with hepatosplenomegaly. […] The photo-oxidation-induced loss of the lysosomal pH-gradient and leakage of acridine orange to the cytosol from individual lysosomes was quantified visually as “loss of red dots” in U2-O—S cells and as a decrease in red and an increase in green fluorescence by Zeiss LSM DUO Software in fibroblasts. The total and cytoplasmic (digitonin-extracted) cathepsin activities were measured in digitonin-treated samples using zFR-AFC (Enzyme System Products) probe as described in the art. The tryptophan fluorescence spectra and liposome 90° light scattering were analyzed in a HEPES buffer (20 mM HEPES, 0.1 mM EDTA, pH as indicated) essentially as described in the art. […] Apoptosis-like cell death and lysosomal membrane permeabilization were analyzed essentially as described in the art. […]

NPC−/− mice [4] = test: NPC1 in vivo pilot study: tissue cholesterol (Amplex Red Cholesterol Assay)
Experimental: as §1
Organs were homogenised without any added buffer and frozen as 10 ul aliquots. Fresh aliquots were reconstituted to 100 ul with PBS prior to biochemical analysis. Protein determination for each aliquot was performed by BCA protein assay. Cholesterol assays were performed using the Amplex Red Cholesterol Assay from Invitrogen^i. Sphingosine was isolated by sphingoid base extraction and analysed by HPLC^i. GSLs were extracted and analysed by fluorescent HPLC^i. All results were standardised for protein content.

rHsp70: recombinant (human) heat shock protein 70; in some tests labelled with Alexa Fluor 488
organ weights (NPC−/− mice [1]): No differences
rearing (NPC−/− mice [2]; after 6 treatment weeks): no difference
successfully completed vs failed rearing events (NPC−/− mice [2]; at 9 weeks, n=5 treated, n=4 control): only control mice failed to complete rearings
tremor (NPC−/− mice [3]): increased tremor from 3 weeks of treatment and remained increased until endstage
ASM activity (ASM): increased the ASM activity to the level comparable to that in Hsp70-MEFs
cholesterol in peripheral tissue (NPC−/− mice [4]; 7 week time point, compared to control): significant decreases
brain cholesterol (NPC−/− mice [4]; 7 week time point, done in triplicate): decrease, although the decrease only occurred in one repeat of the experiment
cholesterol (NPC−/− mice [4]; 9 week time point): no difference
